This is an account of results in the supplement of paper PMC12076712.

Where only a bound is given, the exact number is not on record here.

Holding throughout (test): pIC50, kinobeads binding competition
One experiment concerns the target INSR (UniProt P06213). The method, boiled down:
(§1)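 To obtain pIC50, fold changes versus vehicle were fitted to logistic dose-response curves (R drc package) across biological duplicates. Protein binding to Kinobeads was quantified by TMT10 LC-MS/MS of digested bead-bound proteins. Treatments used nine concentrations with a top of 30 μM, applied to live Jurkat cells in 1:4 steps for 60 min at 37 °C before lysis, or to Jurkat lysate or a 1:1:1:1 HEK293/K-562/HepG2/placenta lysate mix in 1:5 steps for 60 min at 4 °C.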

A further experiment concerns the target JAK1 (UniProt P23458). The method, boiled down:
as §1

Another experiment deals with T1, NEK1 (UniProt Q96PY6).
T1 sequence (whole entry): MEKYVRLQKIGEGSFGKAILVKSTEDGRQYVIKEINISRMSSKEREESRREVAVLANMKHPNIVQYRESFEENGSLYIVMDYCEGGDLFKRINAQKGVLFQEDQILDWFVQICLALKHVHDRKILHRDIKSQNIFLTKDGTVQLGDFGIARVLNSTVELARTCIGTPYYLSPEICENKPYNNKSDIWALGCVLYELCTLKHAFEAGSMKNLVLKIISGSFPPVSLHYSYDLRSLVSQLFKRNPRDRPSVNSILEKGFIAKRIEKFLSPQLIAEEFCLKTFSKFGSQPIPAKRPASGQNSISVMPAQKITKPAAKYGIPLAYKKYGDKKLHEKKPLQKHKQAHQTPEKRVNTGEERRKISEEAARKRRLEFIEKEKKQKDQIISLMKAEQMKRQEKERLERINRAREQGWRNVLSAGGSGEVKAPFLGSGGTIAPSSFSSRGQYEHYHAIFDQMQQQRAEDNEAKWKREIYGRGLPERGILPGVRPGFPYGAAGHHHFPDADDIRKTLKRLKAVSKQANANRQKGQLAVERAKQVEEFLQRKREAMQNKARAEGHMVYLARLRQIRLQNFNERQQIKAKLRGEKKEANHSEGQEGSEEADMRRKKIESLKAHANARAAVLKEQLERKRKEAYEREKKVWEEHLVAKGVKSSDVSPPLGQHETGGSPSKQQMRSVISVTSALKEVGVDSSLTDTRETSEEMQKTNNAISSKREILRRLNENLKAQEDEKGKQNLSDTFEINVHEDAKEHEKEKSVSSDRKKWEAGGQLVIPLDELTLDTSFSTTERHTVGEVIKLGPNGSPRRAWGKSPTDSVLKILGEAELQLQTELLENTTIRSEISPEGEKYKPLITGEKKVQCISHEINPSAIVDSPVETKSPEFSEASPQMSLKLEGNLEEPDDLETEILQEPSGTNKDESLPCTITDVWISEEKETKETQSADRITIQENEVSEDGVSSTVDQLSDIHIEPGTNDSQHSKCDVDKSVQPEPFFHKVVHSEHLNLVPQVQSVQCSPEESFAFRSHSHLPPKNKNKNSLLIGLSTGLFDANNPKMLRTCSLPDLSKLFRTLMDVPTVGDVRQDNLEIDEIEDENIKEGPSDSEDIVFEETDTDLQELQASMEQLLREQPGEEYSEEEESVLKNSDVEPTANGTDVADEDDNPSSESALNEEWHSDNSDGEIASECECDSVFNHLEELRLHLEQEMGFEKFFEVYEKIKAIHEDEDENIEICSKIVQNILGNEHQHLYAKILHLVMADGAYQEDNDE
The method, boiled down:
as §1

In a further experiment the target is PIM2 (UniProt Q9P1W9). The method, boiled down: as §1
Another experiment concerns the target T2, PRKD2 (UniProt Q9BZL6).
T2 sequence (whole entry): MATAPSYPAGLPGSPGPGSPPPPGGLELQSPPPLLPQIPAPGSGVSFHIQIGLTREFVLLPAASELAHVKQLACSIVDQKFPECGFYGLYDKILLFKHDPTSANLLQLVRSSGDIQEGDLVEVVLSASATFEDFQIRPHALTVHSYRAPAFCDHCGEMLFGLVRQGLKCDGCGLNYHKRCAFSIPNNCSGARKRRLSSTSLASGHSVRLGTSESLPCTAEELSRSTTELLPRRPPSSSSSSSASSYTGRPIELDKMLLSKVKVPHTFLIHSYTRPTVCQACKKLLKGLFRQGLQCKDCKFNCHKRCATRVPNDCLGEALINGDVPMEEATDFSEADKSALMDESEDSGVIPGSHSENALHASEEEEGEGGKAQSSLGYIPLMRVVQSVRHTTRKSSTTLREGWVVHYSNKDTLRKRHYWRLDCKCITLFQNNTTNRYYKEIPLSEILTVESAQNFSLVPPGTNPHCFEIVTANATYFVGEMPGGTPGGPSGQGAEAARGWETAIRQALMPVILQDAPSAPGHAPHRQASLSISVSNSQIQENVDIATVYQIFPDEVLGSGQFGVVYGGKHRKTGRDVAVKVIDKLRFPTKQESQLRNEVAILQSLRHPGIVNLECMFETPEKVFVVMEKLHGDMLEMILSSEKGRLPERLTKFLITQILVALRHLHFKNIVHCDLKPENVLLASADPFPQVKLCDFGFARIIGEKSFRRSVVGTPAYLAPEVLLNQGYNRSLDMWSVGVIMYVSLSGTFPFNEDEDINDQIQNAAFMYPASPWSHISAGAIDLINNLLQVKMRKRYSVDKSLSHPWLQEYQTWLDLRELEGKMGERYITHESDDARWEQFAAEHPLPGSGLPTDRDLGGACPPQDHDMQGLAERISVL
The method, boiled down:
as §1

For a further experiment, the target named is STK35 (UniProt Q8TDR2). The method, boiled down: as §1
For the next experiment, the target named is UniProt P04629. To be noted: cell material: Lysate mix. The method in brief: as §1
In a further experiment the target is UniProt P27361. The method in brief:
as §1

JAK1, sequence (P23458 whole entry): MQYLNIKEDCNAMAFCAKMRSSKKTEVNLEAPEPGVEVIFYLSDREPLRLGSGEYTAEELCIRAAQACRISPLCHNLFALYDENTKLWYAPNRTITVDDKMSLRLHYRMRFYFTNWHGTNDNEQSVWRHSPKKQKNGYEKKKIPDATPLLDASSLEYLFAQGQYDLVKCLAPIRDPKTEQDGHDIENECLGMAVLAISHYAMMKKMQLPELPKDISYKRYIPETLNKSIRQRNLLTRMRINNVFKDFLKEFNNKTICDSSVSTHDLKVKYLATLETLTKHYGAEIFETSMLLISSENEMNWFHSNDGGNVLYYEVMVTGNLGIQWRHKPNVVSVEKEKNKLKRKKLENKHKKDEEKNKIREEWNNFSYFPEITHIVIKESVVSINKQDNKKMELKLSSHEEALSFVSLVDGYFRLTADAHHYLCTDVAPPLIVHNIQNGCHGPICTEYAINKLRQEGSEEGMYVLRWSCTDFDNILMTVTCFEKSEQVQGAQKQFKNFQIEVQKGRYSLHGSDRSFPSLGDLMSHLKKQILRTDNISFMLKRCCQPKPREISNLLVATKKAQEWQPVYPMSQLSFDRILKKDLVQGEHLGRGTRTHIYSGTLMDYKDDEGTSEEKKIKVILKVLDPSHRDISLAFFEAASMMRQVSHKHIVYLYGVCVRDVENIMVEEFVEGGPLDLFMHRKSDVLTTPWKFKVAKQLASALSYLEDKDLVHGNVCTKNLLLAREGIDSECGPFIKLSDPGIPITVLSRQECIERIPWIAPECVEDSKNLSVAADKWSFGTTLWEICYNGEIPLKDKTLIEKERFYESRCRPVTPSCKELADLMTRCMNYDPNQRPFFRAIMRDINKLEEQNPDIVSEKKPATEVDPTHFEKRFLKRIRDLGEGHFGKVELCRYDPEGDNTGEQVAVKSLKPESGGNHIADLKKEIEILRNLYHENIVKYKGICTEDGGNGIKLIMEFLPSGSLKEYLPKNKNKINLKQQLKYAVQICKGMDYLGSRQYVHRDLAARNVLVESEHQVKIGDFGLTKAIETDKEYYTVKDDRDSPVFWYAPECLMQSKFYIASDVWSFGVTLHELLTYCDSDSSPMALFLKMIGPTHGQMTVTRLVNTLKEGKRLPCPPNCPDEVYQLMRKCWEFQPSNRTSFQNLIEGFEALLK
UniProt P27361, sequence (P27361 whole entry): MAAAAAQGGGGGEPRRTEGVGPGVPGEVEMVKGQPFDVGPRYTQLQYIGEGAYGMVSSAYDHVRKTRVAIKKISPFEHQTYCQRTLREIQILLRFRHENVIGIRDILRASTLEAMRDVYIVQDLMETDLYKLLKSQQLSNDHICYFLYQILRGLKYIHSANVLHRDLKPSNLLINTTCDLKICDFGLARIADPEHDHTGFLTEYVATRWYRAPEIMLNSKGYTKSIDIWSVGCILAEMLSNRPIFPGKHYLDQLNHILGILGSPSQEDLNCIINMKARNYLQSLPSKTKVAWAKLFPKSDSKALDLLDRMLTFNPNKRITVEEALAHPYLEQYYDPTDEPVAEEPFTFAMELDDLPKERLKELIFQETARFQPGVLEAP
STK35, sequence (Q8TDR2 whole entry): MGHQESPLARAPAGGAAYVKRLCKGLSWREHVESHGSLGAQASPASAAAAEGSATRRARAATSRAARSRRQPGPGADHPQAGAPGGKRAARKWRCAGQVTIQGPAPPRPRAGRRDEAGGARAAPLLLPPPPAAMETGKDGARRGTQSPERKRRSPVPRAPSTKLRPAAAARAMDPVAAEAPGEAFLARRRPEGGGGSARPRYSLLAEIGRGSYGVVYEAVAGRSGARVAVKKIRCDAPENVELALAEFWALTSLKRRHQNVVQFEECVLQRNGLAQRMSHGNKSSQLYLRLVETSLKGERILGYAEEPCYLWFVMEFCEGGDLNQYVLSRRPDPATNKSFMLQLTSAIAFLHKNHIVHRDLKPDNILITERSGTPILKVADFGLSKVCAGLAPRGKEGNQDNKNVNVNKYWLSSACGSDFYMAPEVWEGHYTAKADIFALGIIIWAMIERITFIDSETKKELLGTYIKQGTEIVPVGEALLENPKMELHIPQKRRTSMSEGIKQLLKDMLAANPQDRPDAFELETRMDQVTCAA
INSR, sequence (P06213 whole entry): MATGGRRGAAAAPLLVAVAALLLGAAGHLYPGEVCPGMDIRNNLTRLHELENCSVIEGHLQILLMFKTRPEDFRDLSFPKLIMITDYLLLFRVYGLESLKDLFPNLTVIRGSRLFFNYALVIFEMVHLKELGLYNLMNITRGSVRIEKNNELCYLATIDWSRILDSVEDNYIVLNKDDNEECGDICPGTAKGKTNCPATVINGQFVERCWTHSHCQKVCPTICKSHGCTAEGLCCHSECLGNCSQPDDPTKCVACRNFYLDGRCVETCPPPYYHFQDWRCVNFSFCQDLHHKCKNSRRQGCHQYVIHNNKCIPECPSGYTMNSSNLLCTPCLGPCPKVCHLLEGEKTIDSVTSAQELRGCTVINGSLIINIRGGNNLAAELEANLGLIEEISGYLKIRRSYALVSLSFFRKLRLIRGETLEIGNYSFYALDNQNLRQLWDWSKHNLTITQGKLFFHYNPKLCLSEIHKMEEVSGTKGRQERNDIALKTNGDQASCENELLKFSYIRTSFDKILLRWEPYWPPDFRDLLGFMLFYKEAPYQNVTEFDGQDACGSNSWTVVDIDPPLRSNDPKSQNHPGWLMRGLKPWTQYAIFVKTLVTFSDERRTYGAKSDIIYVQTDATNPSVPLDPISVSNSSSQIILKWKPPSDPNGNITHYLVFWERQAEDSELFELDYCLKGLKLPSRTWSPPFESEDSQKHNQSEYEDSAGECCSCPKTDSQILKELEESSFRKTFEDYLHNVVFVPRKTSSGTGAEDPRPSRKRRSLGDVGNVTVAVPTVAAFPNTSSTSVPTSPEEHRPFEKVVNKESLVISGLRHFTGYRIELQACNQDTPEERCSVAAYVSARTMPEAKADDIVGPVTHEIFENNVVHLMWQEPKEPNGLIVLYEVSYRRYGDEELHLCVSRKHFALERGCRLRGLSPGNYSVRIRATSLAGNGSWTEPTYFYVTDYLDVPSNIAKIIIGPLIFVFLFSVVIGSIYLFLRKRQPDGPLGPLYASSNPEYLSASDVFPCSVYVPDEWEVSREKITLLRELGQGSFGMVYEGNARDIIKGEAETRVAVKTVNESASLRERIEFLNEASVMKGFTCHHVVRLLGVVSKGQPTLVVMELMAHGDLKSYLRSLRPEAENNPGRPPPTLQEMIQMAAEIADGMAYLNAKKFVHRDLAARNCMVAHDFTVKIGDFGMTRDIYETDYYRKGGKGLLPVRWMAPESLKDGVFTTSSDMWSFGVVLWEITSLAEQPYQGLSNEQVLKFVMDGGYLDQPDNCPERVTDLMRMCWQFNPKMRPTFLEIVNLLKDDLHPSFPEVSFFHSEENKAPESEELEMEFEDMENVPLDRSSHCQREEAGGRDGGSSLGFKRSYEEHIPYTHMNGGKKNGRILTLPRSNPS
PIM2, sequence (Q9P1W9 whole entry, looked up): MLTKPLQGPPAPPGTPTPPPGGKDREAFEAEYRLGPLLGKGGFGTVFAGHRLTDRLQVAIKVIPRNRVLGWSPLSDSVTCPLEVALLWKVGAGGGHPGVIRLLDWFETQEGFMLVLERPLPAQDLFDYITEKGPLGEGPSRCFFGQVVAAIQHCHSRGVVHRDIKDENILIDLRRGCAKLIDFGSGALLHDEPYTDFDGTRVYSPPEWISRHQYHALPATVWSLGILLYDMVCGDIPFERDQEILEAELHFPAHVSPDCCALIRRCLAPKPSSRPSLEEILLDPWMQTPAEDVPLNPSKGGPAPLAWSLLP
UniProt P04629, sequence (P04629 whole entry, looked up): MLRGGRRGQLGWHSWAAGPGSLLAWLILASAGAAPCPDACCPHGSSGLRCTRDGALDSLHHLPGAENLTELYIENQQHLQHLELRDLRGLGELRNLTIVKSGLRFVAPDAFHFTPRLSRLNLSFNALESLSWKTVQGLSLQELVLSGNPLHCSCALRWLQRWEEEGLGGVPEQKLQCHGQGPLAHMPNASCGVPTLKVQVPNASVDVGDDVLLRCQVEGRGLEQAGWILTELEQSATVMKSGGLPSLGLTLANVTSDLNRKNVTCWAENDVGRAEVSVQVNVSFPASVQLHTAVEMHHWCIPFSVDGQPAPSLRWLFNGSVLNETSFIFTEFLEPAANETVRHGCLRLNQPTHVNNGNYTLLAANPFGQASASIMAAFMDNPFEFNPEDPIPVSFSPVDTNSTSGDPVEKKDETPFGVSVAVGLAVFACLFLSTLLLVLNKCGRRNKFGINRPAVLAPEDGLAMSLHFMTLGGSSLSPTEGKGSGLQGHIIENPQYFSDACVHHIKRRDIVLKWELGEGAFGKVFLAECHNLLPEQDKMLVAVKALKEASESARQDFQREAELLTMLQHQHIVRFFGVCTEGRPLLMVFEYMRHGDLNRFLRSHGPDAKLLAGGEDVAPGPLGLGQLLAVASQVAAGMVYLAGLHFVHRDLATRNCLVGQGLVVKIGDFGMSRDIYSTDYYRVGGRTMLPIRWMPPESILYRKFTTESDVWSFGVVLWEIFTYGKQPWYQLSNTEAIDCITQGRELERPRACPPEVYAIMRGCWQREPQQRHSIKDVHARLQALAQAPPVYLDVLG

The pIC50 is −log10 of the IC50, conventionally taken in molar units. The low end stands for a large IC50, the high end for a small IC50. Consider `Cc1cc(Nc2cc(C(=O)NCCNC(=O)OC3CC/C=C/CCC3)nc(N3CCN(Cc4ccc(S(=O)(=O)F)cc4)CC3)n2)n[nH]1` (stereo unspecified), for which the negative-log IC50 (pIC50) is less than 4.52 on INSR (cell material: Lysate mix); less than 4.52 on JAK1 (cell material: Lysate mix); less than 4.52 on NEK1 (cell material: Lysate mix); less than 4.52 on PIM2 (cell material: Lysate mix); less than 4.52 on PRKD2 (cell material: Lysate mix); 4.91 at STK35 (cell material: Lysate mix). The pIC50 at UniProt P04629 and at UniProt P27361 (cell material: Lysate mix) was less than 4.52 throughout.

Regarding `C#CCNC(=O)c1cc(Nc2cc(C3CC3)[nH]n2)nc(N2CCN(Cc3ccc(S(=O)(=O)F)cc3)CC2)n1`, the pIC50 at INSR (cell material: Jurkat cells) is 4.82; at INSR (cell material: Jurkat lysate) it was less than 4.52; at INSR (cell material: Lysate mix) it was less than 4.52; on JAK1 (cell material: Jurkat cells) it was 5.18; on JAK1 (cell material: Jurkat lysate), less than 4.52; at JAK1 (cell material: Lysate mix) it was less than 4.52. In addition, the pIC50 on NEK1 (cell material: Jurkat cells) was 5.94; at NEK1 (cell material: Jurkat lysate), less than 4.52; at PIM2 (cell material: Jurkat lysate), less than 4.52; on PIM2 (cell material: Lysate mix), less than 4.52; at PRKD2 (cell material: Jurkat cells), 5.42; on PRKD2 (cell material: Jurkat lysate) it was less than 4.52. For the same compound, the pIC50 at PRKD2 (cell material: Lysate mix) is less than 4.52; on STK35 (cell material: Jurkat cells) it was 6.96; on STK35 (cell material: Jurkat lysate) it was 6.1; at STK35 (cell material: Lysate mix), 6.96; on UniProt P04629, 5.39; at UniProt P27361 (cell material: Jurkat cells) it was 5.73. The pIC50 on UniProt P27361 (cell material: Jurkat lysate) is less than 4.52.

In the case of `CCNC(=O)c1cc(Nc2cc(C3CC3)[nH]n2)nc(N2CCN(Cc3ccc(S(=O)(=O)F)cc3)CC2)n1`, the pIC50 at INSR (cell material: Lysate mix) is less than 4.52; on JAK1 (cell material: Lysate mix), less than 4.52; on NEK1 (cell material: Lysate mix) it was 4.86; on PIM2 (cell material: Lysate mix) it was less than 4.52; on PRKD2 (cell material: Lysate mix) it was less than 4.52; on STK35 (cell material: Lysate mix), 6.58. Besides, the pIC50 on UniProt P04629 was 5.58; on UniProt P27361 (cell material: Lysate mix), 4.94.

Regarding `C#CCNC(=O)c1cc(Nc2cc(C)[nH]n2)nc(N2CCN(Cc3ccc(S(=O)(=O)F)cc3)CC2)n1`, the pIC50 at INSR (cell material: Lysate mix) was less than 4.52; on JAK1 (cell material: Lysate mix), less than 4.52; at NEK1 (cell material: Lysate mix), less than 4.52; at PIM2 (cell material: Lysate mix), less than 4.52; at PRKD2 (cell material: Lysate mix), less than 4.52; at STK35 (cell material: Lysate mix), 6.01. For the same compound, the pIC50 on UniProt P04629 and on UniProt P27361 (cell material: Lysate mix) was less than 4.52 each time.

For the compound `O=C(NCCNC(=O)c1cc(Nc2cc(C3CC3)[nH]n2)nc(N2CCN(Cc3ccc(S(=O)(=O)F)cc3)CC2)n1)OC1CC/C=C/CCC1` (stereo unspecified), the pIC50 on INSR (cell material: Jurkat cells), on INSR (cell material: Jurkat lysate), on INSR (cell material: Lysate mix), at JAK1 (cell material: Jurkat cells), at JAK1 (cell material: Jurkat lysate) and on JAK1 (cell material: Lysate mix) was less than 4.52 in each case. Further, the pIC50 is 5.43 on NEK1 (cell material: Jurkat cells); less than 4.52 on NEK1 (cell material: Jurkat lysate); less than 4.52 on NEK1 (cell material: Lysate mix); less than 4.52 on PIM2 (cell material: Jurkat lysate); less than 4.52 on PIM2 (cell material: Lysate mix); less than 4.52 at PRKD2 (cell material: Jurkat cells). For the same compound, the pIC50 is less than 4.52 at PRKD2 (cell material: Jurkat lysate); less than 4.52 on PRKD2 (cell material: Lysate mix); 6.88 on STK35 (cell material: Jurkat cells); 5.19 at STK35 (cell material: Jurkat lysate); 5.2 on STK35 (cell material: Lysate mix); less than 4.52 at UniProt P04629. Further, the pIC50 at UniProt P27361 (cell material: Jurkat lysate) and at UniProt P27361 (cell material: Lysate mix) was less than 4.52 in each case.

For the compound `CCNC(=O)c1cc(Nc2cc(C)[nH]n2)nc(N2CCN(Cc3ccc(S(=O)(=O)F)cc3)CC2)n1`, the pIC50 on INSR (cell material: Lysate mix) is less than 4.52; on JAK1 (cell material: Lysate mix), less than 4.52; at NEK1 (cell material: Lysate mix), less than 4.52; on PIM2 (cell material: Lysate mix), less than 4.52; at PRKD2 (cell material: Lysate mix) it was less than 4.52; on STK35 (cell material: Lysate mix), 6.51. The pIC50 on UniProt P04629 and on UniProt P27361 (cell material: Lysate mix) was less than 4.52 throughout.
